Assay results taken from patent publication US20120245155A1, “FUSED HETEROCYCLIC COMPOUND HAVING AMINO GROUP” (Shionogi & Co., Ltd., priority 2009, published 2012).
pIC50: −log10 of the molar value.

How the values were obtained:
hERG (IKr) = target: T1, hERG (IKr) (Homo sapiens, UniProt Q12809); test: hERG test; format: cell-based; conditions: pH 7.4, HEK293 cells expressing hERG channel, whole cell patch clamp, concentration not given, read-out: % inhibition relative to the tail peak current (IKr)
T1 construct: expressed in transfected cells; host or cells: HEK293 cells
Excerpt: For the purpose of assessing risk of an electrocardiogram QT interval prolongation, effects on delayed rectifier K+ current (IKr), which plays an important role in the ventricular repolarization process of the compound of the present invention, is studied using HEK293 cells expressing human ether-a-go-go related gene (hERG) channel.
After a cell was retained at a membrane potential of −80 mV by whole cell patch clamp method using an automated patch clamp system (PatchXpress 7000A, Axon Instruments Inc.), IKr induced by depolarization pulse stimulation at +40 mV for 2 seconds and, further, repolarization pulse stimulation at −50 mV for 2 seconds was recorded. […] From the recording IKr, an absolute value of the tail peak current was measured based on the current value at the resting membrane potential using analysis software (DataXpress ver. 1, Molecular Devices Corporation). Further, the % inhibition relative to the tail peak current before application of the test compound was calculated, and compared with the vehicle-applied group (0.1% dimethyl sulfoxide solution) to assess influence of the test compound on IKr.

[1] = test system: Neuroblastoma SH—SY5Y cells (SH/APPwt) with human wild-type β-APP excessively expressed; test: Measurement of β-amyloid (Aβ) production inhibitory effect in cell; format: cell-based; conditions: 24 hours incubation, Amyloid β 1-40 by HTRF, read-out: amount needed to inhibit Aβ production by 50% (IC50)
Description: Neuroblastoma SH—SY5Y cells (SH/APPwt) with human wild-type p-APP excessively expressed therein were prepared at 8×10^5 cells/mL, and 150 μl portions thereof were inoculated into each well of a 96-well culture plate (Falcon). The cells were cultured for 2 hours at 37° C. in a 5% gaseous carbon dioxide incubator. Then, a solution which had been preliminarily prepared by adding and suspending the test compound (DMSO (dimethyl sulfoxide) solution) so as to be 2 μl/50 μl medium was added to the cell sap. Namely, the final DMSO concentration was 1%, and the amount of the cell culture was 200 μl. After the incubation was performed for 24 hours from the addition of the test compound, 100 μl of the culture supernatant was collected from each fraction. The amount of the Aβ in each fraction was measured.
The Aβ amount was measured as follows. 10 μl of a homogeneous time resolved fluorescence (HTRF) measurement reagent (Amyloid β 1-40 peptide; IBA Molecular Holding, S. A.) and 10 μl of the culture supernatant were put into a 384-well half area microplate (black microplate, Costar) and mixed with each other, and then left standing overnight at 4° C. while the light was shielded. Then, the fluorescence intensity (excitation wavelength: 337 nm, measurement wavelength: 620 nm and 665 nm) was measured with a Wallac 1420 multilabel counter (Perkin Elmer life sciences). The Aβ amount was determined from the count rate at each measurement wavelength (10000× Count 665/Count 620), and the amount needed to inhibit Aβ production by 50% (IC50) was calculated from at least six different dosages.

T1 sequence (Q12809 whole entry): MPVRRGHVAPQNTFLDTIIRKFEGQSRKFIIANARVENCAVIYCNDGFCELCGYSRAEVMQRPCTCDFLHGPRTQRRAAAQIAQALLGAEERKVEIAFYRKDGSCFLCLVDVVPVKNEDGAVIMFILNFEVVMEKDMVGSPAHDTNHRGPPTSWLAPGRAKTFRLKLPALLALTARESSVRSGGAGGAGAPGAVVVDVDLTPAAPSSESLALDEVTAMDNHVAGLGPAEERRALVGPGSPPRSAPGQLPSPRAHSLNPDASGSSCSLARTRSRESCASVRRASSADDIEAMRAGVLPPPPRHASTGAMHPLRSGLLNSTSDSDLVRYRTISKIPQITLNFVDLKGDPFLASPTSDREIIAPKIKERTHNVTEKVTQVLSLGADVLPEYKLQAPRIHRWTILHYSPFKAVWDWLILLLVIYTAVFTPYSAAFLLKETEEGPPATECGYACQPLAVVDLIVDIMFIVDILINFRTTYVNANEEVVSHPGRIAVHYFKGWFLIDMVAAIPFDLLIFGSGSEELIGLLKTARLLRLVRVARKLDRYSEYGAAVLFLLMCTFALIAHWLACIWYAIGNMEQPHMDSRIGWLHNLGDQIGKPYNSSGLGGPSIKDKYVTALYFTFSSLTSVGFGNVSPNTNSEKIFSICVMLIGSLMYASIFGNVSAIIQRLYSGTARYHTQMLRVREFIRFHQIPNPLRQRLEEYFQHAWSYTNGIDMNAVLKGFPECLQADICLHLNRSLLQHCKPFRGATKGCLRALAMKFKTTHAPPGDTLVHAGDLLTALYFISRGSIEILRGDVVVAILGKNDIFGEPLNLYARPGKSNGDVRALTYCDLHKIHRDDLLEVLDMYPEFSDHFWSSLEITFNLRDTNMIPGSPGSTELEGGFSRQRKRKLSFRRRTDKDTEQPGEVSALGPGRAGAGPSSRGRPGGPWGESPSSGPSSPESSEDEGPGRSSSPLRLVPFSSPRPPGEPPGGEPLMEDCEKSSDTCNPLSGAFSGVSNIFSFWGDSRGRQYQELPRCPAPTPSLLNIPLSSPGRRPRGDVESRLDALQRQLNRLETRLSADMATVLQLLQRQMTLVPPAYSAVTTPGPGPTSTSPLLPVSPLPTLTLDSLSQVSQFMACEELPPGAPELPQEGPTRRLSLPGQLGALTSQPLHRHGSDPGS

Q: What does the source list for `NC1=NC2(c3cc(-c4cncnc4)ccc3F)CCCC2CO1` (racemic) [Compound I-39]?
A: inhibition at 10 min (hERG (IKr)): 19.3%; pIC50 [1]: ≥ 6.00
